The results in this text go back to patent US8247351B2, “Insecticidal compositions having improved effect” (Bayer Cropscience AG, priority 2005, dated 2012).

Series [1] relates to Myzus persicae. Kind of series: Myzus persicae test, Example B (spraying top side of leaf, ammonium salt boosting). The class given is in vivo. The following applies: 120 g/ha active ingredient. As for the experimental part: (§1) Solvent: 7 parts by weight dimethylformamide
(§2) Emulsifier: 1 part by weight alkylaryl polyglycol ether
(§3) An appropriate preparation of active ingredient is prepared by mixing 1 part by weight of active ingredient with the stated amounts of solvent and emulsifier and diluting the concentrate with water to the desired concentration. Where it is necessary to add ammonium salts, phosphonium salts or penetrant, the appropriate amount is added by pipette, after dilution, to each of the ready-prepared product solutions. Single-leaf paprika plants (Capsicum annuum) heavily infested by the green peach aphid (Myzus persicae) are treated by spraying the top side of the leaf (spray volume 600 1/ha) with the preparation of active ingredient at the desired concentration. After the desired time the destruction in % is ascertained. 100% means that all of the animals have been killed; 0% means that no animals have been killed.

In series [2] the test system is Myzus persicae. Put plainly: Myzus persicae test, Example C (spraying top side of leaf, ammonium salt plus penetrant). Format: in vivo. The following applies: 120 g/ha active ingredient. How it is done: as §1, §2
as §3, with “ready prepared” for “ready-prepared”

Series [3] can be described thus: Penetration of active ingredient through enzymatically isolated apple leaf cuticles (Examples A-1, A-2, A-3). Format: in vitro ADME, apple trees of the Golden Delicious variety. The following applies: 500 ppm in DMF/Emulgator W 7:1 (w/w). How it is done: This test measured the penetration of active ingredients through enzymatically isolated cuticles of apple leaves.
The leaves used were cut in the fully developed state from apple trees of the Golden Delicious variety. The cuticles were isolated as follows: • first of all, leaf discs marked on the underside with dye and formed by punching were filled by means of vacuum infiltration with a pectinase solution (0.2% to 2% strength) buffered to a pH of between 3 and 4, • then sodium azide was added and • the leaf discs thus treated were left to stand until the original leaf structure broke down and the non-cellular cuticle underwent detachment.
Thereafter only those cuticles from the top leaf sides that were free from stomata and hairs were used. They were washed a number of times in alternation with water and with a buffer solution of pH 7. The clean cuticles obtained were, finally, applied to Teflon plaques, smoothed with a gentle jet of air, and dried.
In the next step the cuticular membranes obtained in this way were placed in stainless steel diffusion cells (i.e. transport chambers) for the purpose of membrane transport investigations. For these investigations the cuticles were placed centrally using tweezers on the edges of the diffusion cells, which were coated with silicone grease, and sealed with a ring, which was likewise greased. The arrangement had been chosen so that the morphological outer face of the cuticles was directed outwards, in other words to the air, while the original inner side was facing the interior of the diffusion cell.
The diffusion cells were filled with a 30% strength ethylene glycol/water solution. Penetration was determined by applying 10 μl of the spray liquor, whose composition is indicated below, to the outer face of each cuticle. The spray liquor is made up using local tap water of medium hardness.
After the spray liquors had been applied, the water was evaporated and the chambers were then inverted and placed in thermostated troughs in which the temperature and atmospheric humidity above the cuticle was adjustable by means of a gentle stream of air onto the cuticle with the spray coating (20° C., 60% rh). At regular intervals an autosampler took aliquots which were assayed for active ingredient by HPLC.
The figures indicated are average values from 8 to 10 measurements.
Example A-2 was carried out in the same way as in Example A-1.
Example A-3 was carried out in the same way as in Example A-1.

In series [4] the test system is Myzus persicae. Put plainly: Myzus persicae test, Example D (sprayed to runoff, ammonium salt boosting). Format: in vivo. How it is done:
as §1
(§4) Emulsifier: 2 parts by weight alkylaryl polyglycol ether
An appropriate preparation of active ingredient is prepared by mixing 1 part by weight of active ingredient with the stated amounts of solvent and emulsifier and diluting the concentrate with water to the desired concentration. For the application with ammonium salts or phosphonium salts, these salts are added in a concentration of 1000 ppm to the spray liquor.
Paprika plants (Capsicum annum) heavily infested by the green peach aphid (Myzus persicae) are treated by being. sprayed to runoff with the preparation of active ingredient at the desired concentration. After the desired time the destruction in % is ascertained. 100% means that all of the animals have been killed; 0% means that no animals have been killed.

Series [5] has as its system Aphis gossypii. Kind of series: Aphis gossypii test, Example E (sprayed to runoff, ammonium salt boosting). Format: in vivo. Conditions: 4 ppm active ingredient. How it is done: as §1, §4
An appropriate preparation of active ingredient is prepared by mixing 1 part by weight of active ingredient with the stated amounts of solvent and emulsifier and diluting the concentrate with emulsifier-containing water to the desired concentration. For the application with ammonium salts or phosphonium salts, these salts are added in a concentration of 1000 ppm to the spray liquor.
Cotton plants (Gossypium hirsutum) heavily infested by the cotton aphid (Aphis gossypii) are sprayed to runoff with the preparation of active ingredient at the desired concentration.
After the desired time the destruction in % is ascertained. 100% means that all of the aphids have been killed; 0% means than no aphids were killed.

The subject of series [6] is Myzus persicae. Kind of series: Myzus persicae test, Example F (sprayed to runoff, ammonium salt plus penetrant). The class given is in vivo. The following applies: 0.8 ppm active ingredient. A digest of the protocol: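 Active ingredient formulated in dimethylformamide with alkylaryl polyglycol ether emulsifier, diluted in water and sprayed to runoff. Ammonium or phosphonium salt and rapeseed oil methyl ester penetrant each added to the spray liquor at 1000 ppm. Percent kill scored after the chosen time.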

The test system of series [7] is Aphis gossypii. Kind of series: Aphis gossypii test, Example G (sprayed to runoff, ammonium salt plus penetrant). The class given is in vivo. The following applies: 0.8 ppm active ingredient. The method, boiled down: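 Active ingredient formulated in dimethylformamide with alkylaryl polyglycol ether emulsifier, diluted in emulsifier-containing water, with ammonium or phosphonium salt and rapeseed oil methyl ester penetrant each at 1000 ppm a.i. Heavily infested cotton plants sprayed to runoff; percent aphid kill scored after the chosen time.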

In the case of `CCOC(=O)OC1=C(c2cc(C)ccc2C)C(=O)N[C@]12CC[C@@H](OC)CC2` [Ex. I-1-c-1], the “Degree of destruction/% after 3 days” value in series [1] (AS (ammonium sulphate, 1 g/l)) was determined as 67%; in series [1] (No AS) it was 37%.
As for `Cc1ccc(-c2ccc(Cl)cc2)c(C)c1C1=C(O)C2(CCOCC2)NC1=O` [Ex. I-1-a-2], the “Degree of destruction/% after 4 days” value worked out at 37% in series [2] (RME (1 g/l)) and 92% in series [2] (RME (1 g/l) + AS (1 g/l)).
For `Cc1cc(Cl)cc(C)c1C1=C(O)C2(CCOCC2)NC1=O` [Example I-1-a-1], the “Penetration after 24 h/%” value in series [3] (Table A-1, EC + AS (ammonium sulphate, 1 g/l)) is on record as 2.5%; in series [3] (Table A-1, EC + RME (1 g/l) + AS (1 g/l)), 41%; in series [3] (Table A-1, EC + RME (rapeseed oil methyl ester, 1 g/l)), 13.5%; in series [3] (Table A-1, EC alone, 20° C., 60% rh) it was 0.6%; in series [3] (Table A-2, EC + RME (1 g/l) + AT (ammonium thiocyanate, 1 g/l)), 12%; in series [3] (Table A-2, EC + RME (1 g/l)), 3.5%. In addition, the “Penetration after 24 h/%” value in series [3] (Table A-2, EC alone) is reported as below 0.2%; in series [3] (Table A-3, EC + RME (1 g/l) + Ammonium dihydrogen-phosphate (1 g/l)), 42%; in series [3] (Table A-3, EC + RME (1 g/l) + Diammonium hydrogen-phosphate (1 g/l)) it was 26%; in series [3] (Table A-3, EC + RME (1 g/l)), 10%.
`COc1cc(C)cc(C)c1-c1c(O)c(C)c(-c2ccccn2)oc1=O` [Example I-4-a-1]: the “Degree of destruction/% after 6 days” value in series [4] (4 ppm active ingredient, +AS (1000 ppm)) was determined as 45%; in series [4] (4 ppm active ingredient, no additive) it was 0%; in series [4] (20 ppm active ingredient, +AS (1000 ppm)), 95%; in series [4] (20 ppm active ingredient, no additive), 75%; in series [5] (+AS (1000 ppm)), 40%; in series [5] (no additive), 0%. Further, the “Degree of destruction/% after 6 days” value in series [6] (+AS (1000 ppm)) turned out to be 5%; in series [6] (+RME (1000 ppm)), 0%; in series [6] (+RME +AS (each 1000 ppm)), 40%; in series [6] (no additive) it was 0%; in series [7] (+AS (1000 ppm)), 15%; in series [7] (+RME (1000 ppm)) it was 0%. The “Degree of destruction/% after 6 days” value in series [7] (+RME +AS (each 1000 ppm)) was determined as 45%; in series [7] (no additive), 0%.
